# Patent publication US20130317055A1, “NEURONAL NICOTINIC AGONIST AND METHODS OF USE” (ABBVIE INC., priority 2012, published 2013)
# Tested on: clinically stable subjects with schizophrenia
# Assay: Clinical Study A: UCSD Performance-Based Skills Assessment-2 (UPSA-2)
# Type: in vivo, human
# Settings: for UPSA-2 Total Score: Difference from Placebo LS Mean (SE) of Difference / UPSA-2 Total Score: LS Mean (SE) of Change: Baseline to Final Evaluation, ANCOVA; for UPSA-2 Total Score: Observed Mean (SD) Final: Final Evaluation
# Source text: A Phase 2a proof-of-concept (POC) study in clinically stable subjects with schizophrenia who were clinically stable and received stable doses of atypical antipsychotic therapy. The study was a Phase 2, multi-center, randomized, double-blind, placebo-controlled, parallel group study designed to evaluate the safety and efficacy of doses of (4s)-4-(5-phenyl-1,3,4-thiadiazol-2-yloxy)-1-azatricyclo[3.3.1.1^3,7]decane (Compound A) in clinically stable male and female subjects (ages 20 to 55, inclusive) with a Diagnostic and Statistical Manual of Mental Disorders Fourth Edition, Text Revision (DSM-IV-TR) diagnosis of schizophrenia. Psychiatric diagnoses were confirmed using the Mini-International Neuropsychiatric Interview (MINI) version 6.0.0. The criteria for clinical stability was determined by a combination of retrospective data (over the 4 months prior to the start of Screening, which will be supported by clinical records, patient, identified responsible contact person, and physician interviews), and prospective data assessed during the Prospective Stabilization Period of 28 to 42 days duration.
# The study was a Phase 2, multi-center, randomized, double-blind, placebo-controlled, parallel group study designed to evaluate the safety and efficacy of doses of (4s)-4-(5-phenyl-1,3,4-thiadiazol-2-yloxy)-1-azatrieyclo[3.3.1.1^3,7]decane, which is also recognized as Compound A, in treating cognitive deficits in subjects with schizophrenia who were clinically stable and receiving one or two atypical antipsychotic medications. Study drug was administered orally.
# The study consisted of a screening period of at least 28 and up to 42 days, a 84-day outpatient treatment period, a 14-day post-treatment period, and a post-treatment follow-up period. The screening period consisted of three visits: Screening Visit 1, Screening Visit 2, and Day −1. Upon completion of Day −1 procedures, eligible subjects were randomized through an Interactive Voice Response/Interactive Web-Based (IVR/IWB) system. Subjects were randomized in an equal ratio to one of three treatment groups (placebo, 10 mg Compound A, or 25 mg Compound A).
# Subjects were randomized in a 1:1:1 ratio with placebo, 10 mg QD Compound A, of 25 mg Compound A. Each subject was instructed to take study drug once-daily in the morning for 12 weeks. Each daily dose was preferably taken with food. The subject and investigator were blinded to the treatment assignment throughout the study. The treatment assignments for the study subjects are shown below in Table 1.
# The primary endpoint was the MCCB composite score, and the primary endpoint analysis was the change on the MCCB composite score from baseline to endpoint versus placebo. Other secondary measures included the MCCB domains, the NSA-16, the CANTAB cognition battery (measured at different time points from the MCCB), and the UPSA-2. The Positive and Negative Syndrome Scale (PANSS) was included to document stability in schizophrenia symptomatology.
# The UCSD Performance-Based Skills Assesstnent-2 (UPSA-2) is a role-play test designed for subjects with schizophrenia to evaluate cognitive functional capacity in six selected domains of basic living skills. These areas include Organization/Planning Financial Skills, Communication, Transportation, Household Management, and Medication Management. […] Scores were obtained for each subtest, and the total score was the sum of these subtests. […] The UPSA-2 required an average of 30 minutes to administer. The UPSA-2 was administered in on Days 14, 28, 56, 84 and 98.
compound,measurement,setting,value
"c1ccc(-c2nnc(O[C@@H]3C4CC5C[C@H]3C[N@](C5)C4)s2)cc1 [Compound A, (4s)-4-(5-phenyl-1,3,4-thiadiazol-2-yloxy)-1-azatricyclo[3.3.1.1^3,7]decane]",UPSA-2 Total Score: Difference from Placebo LS Mean (SE) of Difference,10 mg QD,0.51 (2.15)
same,UPSA-2 Total Score: LS Mean (SE) of Change,10 mg QD,2.78 (1.52)
same,UPSA-2 Total Score: Observed Mean (SD) Final,10 mg QD,87.98 (20.36)
same,UPSA-2 Total Score: Difference from Placebo LS Mean (SE) of Difference,25 mg QD,0.63 (2.34)
same,UPSA-2 Total Score: LS Mean (SE) of Change,25 mg QD,2.89 (1.70)
same,UPSA-2 Total Score: Observed Mean (SD) Final,25 mg QD,94.29 (15.85)
same,UPSA-2 composite score: significance versus placebo,"either dose group (10 mg, 25 mg)",No significance
